What follows are compounds tested on Jurkat cells (assay: Jurkat cell proliferation, MTS method: compound alone or combined with bleomycin). Settings: compound plus bleomycin 5 μg/ml or 10 μg/ml, 36 hours, survival rate vs DMSO control.
Type: cell-based
Parameters: key: ┌++┘ indicates observation of remarkable enhancement; ┌+┘ indicates moderated enhancement
Method: By using aforementioned synthetic compounds, effects on proliferation of Jurkat cells by sole administration and inhibitory effects on cell proliferation by administration in combination with bleomycin were examined. Materials and methods are as follows. Jurkat cells obtained from Dainippon Pharmaceutical Co. Ltd. were inoculated at about 10,000 cells per well in a 96 well culture plate, and incubated in 10% bovine fetal serum (Irvine Scientific) supplemented with RPMI1640 (ICN) medium in 5% CO2 incubator at 37° C. […] 36 hours after the incubation, the number of living cells was counted by the MTS method.
More specifically, 20 μl of CellTiter96™ AQueous One Solution (Promega) was added per one well, and after the cells were incubated for additional one hour, an absorbance at 490 nm was measured by using a microplate reader. The same culture added with DMSO as a solvent at final concentration of 0.25% was used as a control. The number of cells in the control was considered as 100% survival rate, and for each compound, survival rates by sole administration or a combined administration were calculated. […] In the table, ┌++┘ indicates observation of remarkable enhancement, ┌+┘ indicates moderated enhancement.

Structure (SMILES)	Activity (enhancement of inhibitory effect on cell proliferation in combination with bleomycin)
Cc1ccc(S(=O)(=O)Oc2cccc3c(S(=O)(=O)NCc4ccc(C(C)(C)C)cc4)cccc23)cc1 [Compound 1-7, N-[4-(tert-Butyl)benzyl]-5-{[(4-methylphenyl)sulfonyl]oxy}naphthalene-1-sulfonamide]	++
Cc1ccc(S(=O)(=O)Oc2cccc3c(S(=O)(=O)NCC4CCCCC4)cccc23)cc1 [Compound 1-23, N-Cyclohexylmethyl-5-{[(4-methylphenyl)sulfonyl]oxy}naphthalene-1-sulfonamide]	+
COc1cccc(CNS(=O)(=O)c2cccc3c(OS(=O)(=O)c4ccc(C)cc4)cccc23)c1OC [Compound 1-13, N-(2,3-Dimethoxybenzyl)-5-{[(4-methylphenyl)sulfonyl]oxy}naphthalene-1-sulfonamide]	+
O=S(=O)(NCc1cccc2ccccc12)c1cccc2c(O)cccc12 [Compound 2-19, N-(1-Naphthylmethyl)-5-hydroxynaphthalene-1-sulfonamide]	++
Cc1ccc(S(=O)(=O)Oc2cccc3c(S(=O)(=O)NCc4ccc5c(c4)OCO5)cccc23)cc1 [Compound 1-15, N-(3,4-Methylenedioxybenzyl)-5-{[(4-methylphenyl)sulfonyl]oxy}naphthalene-1-sulfonamide]	+
Cc1ccc(S(=O)(=O)Oc2cccc3c(S(=O)(=O)NCc4ccc([N+](=O)[O-])cc4)cccc23)cc1 [Compound 1-5, N-(4-Nitrobenzyl)-5-{[(4-methylphenyl)sulfonyl]oxy}naphthalene-1-sulfonamide]	++
O=S(=O)(NCCc1ccccc1)c1cccc2c(O)cccc12 [Compound 2-25, N-(2-Phenethyl)-5-hydroxynaphthalene-1-sulfonamide]	+
CC(=O)Oc1cccc2cc(S(=O)(=O)NCc3ccc(C(C)(C)C)cc3)ccc12 [Compound 3-4, 5-Acetyloxy-N-[4-(tert-butyl)benzyl]naphthalene-2-sulfonamide]	++
CC(=O)Oc1cccc2cc(S(=O)(=O)NCc3ccccc3)ccc12 [Compound 3-1, 5-Acetyloxy-N-benzylnaphthalene-2-sulfonamide]	+
